Source: patent US20240409585A1, “MACROCYCLIC IMMUNOMODULATORS” (priority 2021, published 2024)
Bridge positions count the residues as written; N and C are the ends. Square brackets hold non-standard residues; d marks the D form. Peptide text beside a SMILES is read from it. Phe(4-COOH) = N[C@@H](Cc1ccc(C(=O)O)cc1)C(=O)O; Phe(4-CH2NH2) = NCc1ccc(C[C@H](N)C(=O)O)cc1; Bip = N[C@@H](Cc1ccc(-c2ccccc2)cc1)C(=O)O; d(aThr) = C[C@@H](O)[C@@H](N)C(=O)O; 3Pal = N[C@@H](Cc1cccnc1)C(=O)O; dNle = CCCC[C@@H](N)C(=O)O; NMeA = CN[C@@H](C)C(=O)O; Dab = NCC[C@H](N)C(=O)O

molecular target: T1, PE-labeled human PD-L1-Ig binding to Jurkat cell line over-expressing human PD-1 (Jurkat-PD-1) (Homo sapiens, UniProt Q15116); experiment: Jurkat-PD-1 Cell Binding High-Content Screening Assay (CBA): Method 1; details: Jurkat-hPD-1 cells, PE-labeled PD-L1-Ig 20 nM final; read-out: Jurkat HPDL1 PD1 IC50 (uM) (Method 1)
T1 construct: expressed in transfected cells; host or cells: Jurkat
T1 sequence (Q15116 25-288): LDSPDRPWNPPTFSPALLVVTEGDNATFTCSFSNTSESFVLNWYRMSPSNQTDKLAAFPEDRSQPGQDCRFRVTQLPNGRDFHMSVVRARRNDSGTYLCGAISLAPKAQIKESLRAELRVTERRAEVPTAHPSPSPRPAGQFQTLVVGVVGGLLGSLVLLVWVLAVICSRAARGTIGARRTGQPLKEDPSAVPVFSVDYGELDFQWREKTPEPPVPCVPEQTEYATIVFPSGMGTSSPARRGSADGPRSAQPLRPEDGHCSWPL

SMILES | IC50 [µM]
CC(C)C[C@@H]1NC(=O)[C@H](Cc2c[nH]c3ccccc23)NC(=O)[C@H](CC(=O)O)NC(=O)[C@H](Cc2ccc(O)cc2)NC(=O)[C@H](Cc2cccnc2)NC(=O)CSC[C@@H](C(=O)NCC(N)=O)NC(=O)[C@H](CO)NC(=O)[C@H](C(C)C)NC(=O)[C@H](CC(C)C)NC(=O)[C@H](CC(N)=O)NC(=O)[C@@H](C)NC(=O)[C@H](C)N(C)C(=O)[C@H](C(C)C)NC(=O)[C@H](Cc2ccc(-c3ccccc3)cc2)NC1=O [Compound 1743] ({CH2CO}-[3Pal]YDWL[Bip]V[NMeA][dA]NLVSCG-NH2; thioether N-14) | 0.02
CC(C)C[C@@H]1NC(=O)[C@H](Cc2c[nH]c3ccccc23)NC(=O)[C@H](CC(=O)O)NC(=O)[C@H](Cc2ccc(C(=O)O)cc2)NC(=O)[C@H](Cc2ccccc2)NC(=O)CSC[C@@H](C(=O)N[C@@H](C)C(N)=O)NC(=O)[C@H](CO)NC(=O)[C@H](C(C)C)NC(=O)[C@H](CC(C)C)NC(=O)[C@H](CCCCN)NC(=O)[C@@H](C)NC(=O)[C@H](C)N(C)C(=O)[C@H](CCC(=O)O)NC(=O)[C@H](Cc2ccc(-c3ccccc3)cc2)NC1=O [Compound 1746] ({CH2CO}-F[Phe(4-COOH)]DWL[Bip]E[NMeA][dA]KLVSCA-NH2; thioether N-14) | 0.02
CC(C)C[C@@H]1NC(=O)[C@H](Cc2c[nH]c3ccccc23)NC(=O)[C@H](CC(=O)O)NC(=O)[C@H](Cc2ccc(O)cc2)NC(=O)[C@H](Cc2ccccc2)NC(=O)CSC[C@@H](C(=O)N[C@@H](C)C(N)=O)NC(=O)[C@H](CO)NC(=O)[C@H](C(C)C)NC(=O)[C@H](CC(C)C)NC(=O)[C@H](CCC(=O)O)NC(=O)[C@@H](C)NC(=O)[C@H](C)N(C)C(=O)[C@H](C(C)C)NC(=O)[C@H](Cc2ccc(-c3ccccc3)cc2)NC1=O [Compound 1749] ({CH2CO}-FYDWL[Bip]V[NMeA][dA]ELVSCA-NH2; thioether N-14) | 0.02
CC(C)C[C@@H]1NC(=O)[C@H](Cc2c[nH]c3ccccc23)NC(=O)[C@H](CC(=O)O)NC(=O)[C@H](Cc2ccc(CN)cc2)NC(=O)[C@H](Cc2ccccc2)NC(=O)CSC[C@@H](C(=O)N[C@@H](C)C(N)=O)NC(=O)[C@H](CO)NC(=O)[C@H](C(C)C)NC(=O)[C@H](CC(C)C)NC(=O)[C@H](CC(N)=O)NC(=O)[C@@H](C)NC(=O)[C@H](C)N(C)C(=O)[C@H](C(C)C)NC(=O)[C@H](Cc2ccc(-c3ccccc3)cc2)NC1=O [Compound 1750] ({CH2CO}-F[Phe(4-CH2NH2)]DWL[Bip]V[NMeA][dA]NLVSCA-NH2; thioether N-14) | 0.02
CC(C)C[C@@H]1NC(=O)[C@H](Cc2c[nH]c3ccccc23)NC(=O)[C@H](CC(=O)O)NC(=O)[C@H](Cc2ccc(O)cc2)NC(=O)[C@H](Cc2ccccc2)NC(=O)CSC[C@@H](C(=O)N[C@@H](C)C(N)=O)NC(=O)[C@H](CO)NC(=O)[C@H](C(C)C)NC(=O)[C@H](CC(C)C)NC(=O)[C@H](CCN)NC(=O)[C@@H](C)NC(=O)[C@H](C)N(C)C(=O)[C@H](CCCNC(=N)N)NC(=O)[C@H](Cc2ccc(-c3ccccc3)cc2)NC1=O [Compound 1751] ({CH2CO}-FYDWL[Bip]R[NMeA][dA][Dab]LVSCA-NH2; thioether N-14) | 0.03
CCCC[C@H]1NC(=O)[C@H](C)N(C)C(=O)[C@H](C(C)C)NC(=O)[C@H](Cc2ccc(-c3ccccc3)cc2)NC(=O)[C@H](CC(C)C)NC(=O)[C@H](Cc2c[nH]c3ccccc23)NC(=O)[C@H](CC(=O)O)NC(=O)[C@H](Cc2ccc(O)cc2)NC(=O)[C@H](Cc2ccccc2)NC(=O)CSC[C@@H](C(=O)N[C@@H](C)C(N)=O)NC(=O)[C@H](CO)NC(=O)[C@H](C(C)C)NC(=O)[C@H](CC(C)C)NC(=O)[C@H](CC(N)=O)NC1=O [Compound 1753] ({CH2CO}-FYDWL[Bip]V[NMeA][dNle]NLVSCA-NH2; thioether N-14) | 0.03

More lines, in order of falling IC50, values ahead:

IC50 [µM] | SMILES
0.03 | CC(C)C[C@@H]1NC(=O)[C@H](Cc2c[nH]c3ccccc23)NC(=O)[C@H](CC(=O)O)NC(=O)[C@H](Cc2ccc(O)cc2)NC(=O)[C@H](Cc2ccccc2)NC(=O)CSC[C@@H](C(=O)NCC(N)=O)NC(=O)[C@H](CO)NC(=O)[C@H](C(C)C)NC(=O)[C@H](CC(C)C)NC(=O)[C@H](CC(N)=O)NC(=O)[C@@H]([C@@H](C)O)NC(=O)[C@H](C)N(C)C(=O)[C@H](C(C)C)NC(=O)[C@H](Cc2ccc(-c3ccccc3)cc2)NC1=O [Compound 1752] ({CH2CO}-FYDWL[Bip]V[NMeA][d(aThr)]NLVSCG-NH2; thioether N-14)
0.03 | CC(C)C[C@@H]1NC(=O)[C@H](Cc2c[nH]c3ccccc23)NC(=O)[C@H](CC(=O)O)NC(=O)[C@H](Cc2ccc(C(=O)O)cc2)NC(=O)[C@H](CC(N)=O)NC(=O)CSC[C@@H](C(=O)N[C@@H](C)C(N)=O)NC(=O)[C@H](CO)NC(=O)[C@H](C(C)C)NC(=O)[C@H](CC(C)C)NC(=O)[C@H](CC(N)=O)NC(=O)[C@@H](C)NC(=O)[C@H](C)N(C)C(=O)[C@H](C(C)C)NC(=O)[C@H](Cc2ccc(-c3ccccc3)cc2)NC1=O [Compound 1754] ({CH2CO}-N[Phe(4-COOH)]DWL[Bip]V[NMeA][dA]NLVSCA-NH2; thioether N-14)
0.02 | CC(C)C[C@@H]1NC(=O)[C@H](Cc2c[nH]c3ccccc23)NC(=O)[C@H](CC(=O)O)NC(=O)[C@H](Cc2ccc(O)cc2)NC(=O)[C@H](Cc2ccccc2)NC(=O)CSC[C@@H](C(=O)N[C@@H](C)C(N)=O)NC(=O)[C@H]([C@@H](C)O)NC(=O)[C@H](C(C)C)NC(=O)[C@H](CC(C)C)NC(=O)[C@H](CC(N)=O)NC(=O)[C@@H](C)NC(=O)[C@H](C)N(C)C(=O)[C@H](C(C)C)NC(=O)[C@H](Cc2ccc(-c3ccccc3)cc2)NC1=O [Compound 1744] ({CH2CO}-FYDWL[Bip]V[NMeA][dA]NLVTCA-NH2; thioether N-14)
0.02 | CC(C)C[C@@H]1NC(=O)[C@H](Cc2c[nH]c3ccccc23)NC(=O)[C@H](CC(=O)O)NC(=O)[C@H](Cc2ccc(O)cc2)NC(=O)[C@H](Cc2ccccc2)NC(=O)CSC[C@@H](C(=O)N[C@@H](C)C(N)=O)NC(=O)[C@H](CO)NC(=O)[C@H](C(C)C)NC(=O)[C@H](CC(C)C)NC(=O)[C@H](CC(N)=O)NC(=O)[C@@H](CC(C)C)NC(=O)[C@H](C)N(C)C(=O)[C@H](C(C)C)NC(=O)[C@H](Cc2ccc(-c3ccccc3)cc2)NC1=O [Compound 1745] ({CH2CO}-FYDWL[Bip]V[NMeA][dL]NLVSCA-NH2; thioether N-14)
0.02 | CC(C)C[C@@H]1NC(=O)[C@H](Cc2c[nH]c3ccccc23)NC(=O)[C@H](CC(=O)O)NC(=O)[C@H](Cc2ccc(C(=O)O)cc2)NC(=O)[C@H](Cc2cccnc2)NC(=O)CSC[C@@H](C(=O)N[C@@H](C)C(N)=O)NC(=O)[C@H](CO)NC(=O)[C@H](C(C)C)NC(=O)[C@H](CC(C)C)NC(=O)[C@H](CC(N)=O)NC(=O)[C@@H](C)NC(=O)[C@H](C)N(C)C(=O)[C@H](C(C)C)NC(=O)[C@H](Cc2ccc(-c3ccccc3)cc2)NC1=O [Compound 1747] ({CH2CO}-[3Pal][Phe(4-COOH)]DWL[Bip]V[NMeA][dA]NLVSCA-NH2; thioether N-14)
0.02 | CC(C)C[C@@H]1NC(=O)[C@H](Cc2c[nH]c3ccccc23)NC(=O)[C@H](CC(=O)O)NC(=O)[C@H](Cc2ccc(O)cc2)NC(=O)[C@H](Cc2ccccc2)NC(=O)CSC[C@@H](C(=O)N[C@@H](C)C(N)=O)NC(=O)[C@H](CO)NC(=O)[C@H](C(C)C)NC(=O)[C@H](CC(C)C)NC(=O)[C@H](CCCCN)NC(=O)[C@@H](C)NC(=O)[C@H](C)N(C)C(=O)[C@H](C(C)C)NC(=O)[C@H](Cc2ccc(-c3ccccc3)cc2)NC1=O [Compound 1748] ({CH2CO}-FYDWL[Bip]V[NMeA][dA]KLVSCA-NH2; thioether N-14)
